Reference: ChEMBL document CHEMBL3526100, “A refined cytochrome P540 IC₅₀ shift assay for reliably identifying CYP3A time-dependent inhibitors” (Drug Metab Dispos, 2011)

Key:
Type in all cases: ADME
Cytochrome P450 3A4 [1] = target: T1, Cytochrome P450 3A4 (Homo sapiens, UniProt P08684); assay: Time dependent inhibition of CYP3A4 in human liver microsomes assessed as conversion of testosterone to 6beta-hydroxytestosterone at 0.01 to 100 uM preincubated for 60 mins followed by testosterone treatment measured after 10 mins by LC-MS/MS analysis in presence of NADPH
T1 sequence (P08684 whole entry): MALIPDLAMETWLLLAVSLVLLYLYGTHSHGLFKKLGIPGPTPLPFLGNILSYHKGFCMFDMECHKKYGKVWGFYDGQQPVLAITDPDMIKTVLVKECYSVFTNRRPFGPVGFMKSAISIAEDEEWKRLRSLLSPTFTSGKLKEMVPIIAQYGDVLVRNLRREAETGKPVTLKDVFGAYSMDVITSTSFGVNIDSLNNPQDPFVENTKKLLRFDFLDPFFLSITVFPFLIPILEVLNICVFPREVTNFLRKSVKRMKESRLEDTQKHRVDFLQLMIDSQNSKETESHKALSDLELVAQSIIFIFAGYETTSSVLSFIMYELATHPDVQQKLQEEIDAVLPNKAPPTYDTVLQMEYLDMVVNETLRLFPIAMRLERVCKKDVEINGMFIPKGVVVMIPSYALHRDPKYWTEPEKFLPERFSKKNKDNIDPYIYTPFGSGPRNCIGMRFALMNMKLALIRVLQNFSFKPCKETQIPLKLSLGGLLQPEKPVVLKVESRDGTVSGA

Cytochrome P450 3A4 [2] = target: T1, Cytochrome P450 3A4; assay: Time dependent inhibition of CYP3A4 in human liver microsomes assessed as conversion of testosterone to 6beta-hydroxytestosterone at 0.01 to 100 uM preincubated for 60 mins followed by testosterone treatment measured after 10 mins by refined CYP450 IC50 shift assay in presence of NADPH
Cytochrome P450 3A4 [3] = target: T1, Cytochrome P450 3A4; assay: Time dependent inhibition of CYP3A4 in human liver microsomes assessed as conversion of testosterone to 6beta-hydroxytestosterone at 0.01 to 100 uM preincubated for 60 mins followed by testosterone treatment measured after 10 mins by LC-MS/MS analysis
Cytochrome P450 3A4 [4] = target: T1, Cytochrome P450 3A4; assay: Time dependent inhibition of CYP3A4 in human liver microsomes assessed as conversion of testosterone to 6beta-hydroxytestosterone at 0.01 to 100 uM preincubated for 60 mins followed by testosterone treatment measured after 10 mins by refined CYP450 IC50 shift assay

Measured: inhibition (INH)

CC[C@H]1OC(=O)[C@H](C)[C@@H](O[C@H]2C[C@@](C)(OC)[C@@H](O)[C@H](C)O2)[C@H](C)[C@@H](O[C@@H]2O[C@H](C)C[C@H](N(C)C)[C@H]2O)[C@](C)(O)C[C@@H](C)C(=O)[C@H](C)[C@@H](O)[C@]1(C)O [ERYTHROMYCIN]
Active: Cytochrome P450 3A4 [1] | Cytochrome P450 3A4 [2] | Cytochrome P450 3A4 [3] | Cytochrome P450 3A4 [4]

C/C(=C\COc1c2ccoc2cc2oc(=O)ccc12)CCC(O)C(C)(C)O (stereo not given) [DIHYDROXYBERGAMOTTIN]
Active: Cytochrome P450 3A4 [1] | Cytochrome P450 3A4 [2] | Cytochrome P450 3A4 [3] | Cytochrome P450 3A4 [4]

CNCCC(Oc1ccc(C(F)(F)F)cc1)c1ccccc1 (stereo not given) [FLUOXETINE]
Active: Cytochrome P450 3A4 [1] | Cytochrome P450 3A4 [2] | Cytochrome P450 3A4 [3] | Cytochrome P450 3A4 [4]

O=C(c1ccc(OCCN2CCCCC2)cc1)c1c(-c2ccc(O)cc2)sc2cc(O)ccc12 [RALOXIFENE]
Active: Cytochrome P450 3A4 [1] | Cytochrome P450 3A4 [2] | Cytochrome P450 3A4 [3] | Cytochrome P450 3A4 [4]

CC(C)=CCC/C(C)=C/COc1c2ccoc2cc2oc(=O)ccc12 [BERGAMOTTIN]
Active: Cytochrome P450 3A4 [1] | Cytochrome P450 3A4 [2] | Cytochrome P450 3A4 [3] | Cytochrome P450 3A4 [4]
